{"source": "patent US10034898B2", "about": "“Methods and systems for treatment of inflammatory diseases with nitric oxide” (priority 2012, dated 2018)", "key": {"[1]": {"system": "capillary circulation of the skin", "assay": "Laser Doppler circulation study in five human subjects, Example 7", "assay_type": "in vivo", "details": "positive control formulation containing 0.1% methyl nicotinate, vs untreated skin", "text": "This example illustrates delivery of nitric oxide formulations to five human subjects, using procedures and formulations similar to those discussed in Example 5. Each person served as their own control for the testing. A Moor Instruments Laser Doppler was used to determine circulation. […] The formulations used produce positive, almost immediate results when applied to the skin which, in these studies, was manifested by vasodilatation of the cutaneous vascular system.\nFor each subject, the following creams were applied: a negative control formulation (containing no NO), 0.010 gram of a 10,000 ppm NO formulation, 0.020 gram of a 10,000 ppm NO formulation, and a positive control formulation containing 0.1% methyl nicotinate. The formulations were prepared using procedures similar to those discussed in Example 1."}, "[2]": {"system": "micro-capillary blood flow to skin", "assay": "Laser Doppler capillary blood flow study, Example 5 (closed Hilltop chamber on forearm)", "assay_type": "in vivo, humans", "details": "applied to the skin at 1/10% in alcohol", "procedure": "This example illustrates delivery of nitric oxide formulations similar to those discussed herein in humans. In these studies, laser Doppler studies were performed on three human female subjects. […] The formulations used produce positive, almost immediate results when applied to the skin which, in these studies, was manifested by vasodilatation of the cutaneous vascular system.\nWhile nitric oxide has many physiological effects, the purpose of these studies was to measure physiological effects that would be relatively easy to determine, and which would be noninvasive. […] Nitric oxide is capable of […] the capillary bed, and thus, laser Doppler was selected.\nThe formulation used in these studies contained nitric oxide dispersed in a lipid matrix. […] This provided a stable measuring device as determined by multiple normal evaluations of the capillary blood flow without treatment of nitric oxide.\nA known positive control, methyl nicotinate, was applied to the skin at a concentration of 1/10% in alcohol. […] The laser Doppler device accurately measured these parameters.\nIn these studies, the participants were healthy females aged 30 to 55 years. They were in good health as determined by the medical history and were not taking any prescription medications. All study participants read and signed the informed consent statement prior to any study procedures being performed. […]"}}, "data": [{"smiles": "COC(=O)c1cccnc1", "note": "[methyl nicotinate]", "values": [{"measurement": "vasodilatation", "setting": "[1]", "result": "vasodilatation was observed"}, {"measurement": "laser Doppler response of positive control", "setting": "[2]", "result": "rapid response typical of the vasodilator"}]}]}
